Data reported in patent publication US20050250853A1, “Beta-tubulin inhibitors” (priority 1999, published 2005).
“Also recorded” adds a separate entry of the source. Where two headings read alike, the source gives them in different places. Marks after values point to notes of the source that are not given here.

Tests used:
MDA-MB-231 cells [1] = assay: cells; format: cell-based, human; conditions: for IC50: MTT assay, mean ± SD, read-out: IC50 (μM) MDA-MB-231
Protocol: (§1) Human breast carcinoma cell line, MDA-MB-231, was obtained from the American Type Culture Collection (ATCC HTB-26; Bethesda, Md.). MDA-MB-231 cells were grown in RPMI 1640 medium supplemented with 10% bovine calf serum (Hyclone, Road Logan, Utah). Wild-type Chinese Hamster Ovary cells (CHO-10001) (7), colchicine- and vinblastine-resistant (CHO-VV 3-2) (8) and taxol-resistant (CHO-TAX 5-6) cells (9) were generously provided by Dr. Fernando Cabral (University of Texas Medical School, Houston, Tex.). These cells were cultured in RPMI 1640 containing 10% fetal bovine serum. SK—N—SH human neuroblastoma cells, (ATCC HTB-11; Bethesda, Md.) were cultured in MEM medium supplemented with 2 mM L-glutamine, 1.5 g/liter sodium bicarbonate, 0.1 mM non-essential amino acids, 1 mM sodium pyruvate and 10% fetal bovine serum. Cells were cultured in a humidified atmosphere at 37° C. in 5% CO2.
(§2) Cytotoxicity was assessed using the MTT assay (3-(4,5-dimethylthiazol-2-yl)-2,5-diphenyltetrazolium bromide) as described by Carmichael et al. (12).

MDA-MB-231 cells [2] = assay: Cell cycle analysis by propidium iodide flow cytometry; format: cell-based, human; conditions: for speed of induction of cell cycle arrest in G2+M compared with 4-tBCEU: 30 μM, 24 or 48 h; for accumulation of cells in G2+M: CEU derivatives at 30 μM, 24 h, flow cytometry
Protocol: FIG. 1. Effect of CEU derivatives on cell cycle. Exponentially growing MDA-MB-231 cells were incubated in the absence or presence of 30 μM of either 4-tBCEU, 4-iPCEU or 4-sBCEU for 24 and 48 h, respectively, at 37° C. The cell cycle was evaluated using propidium iodide staining and flow cytometric analysis. Data are representative of three independent experiments.
Following incubation of MDA-MB-231 cells with 4-tBCEU, 4-iPCEU or 4-sBCEU, the cells were harvested, resuspended in 1 ml PBS and fixed by the addition of 2.4 ml of ice cold anhydrous ethanol. Then, 5×10^5 cells from each sample were centrifuged for 3 min at 1000×g. Cell pellets were resuspended in PBS containing 50 μg/ml of PI and 40 U/ml of ribonuclease A (Boehringer Mannheim, Laval, Calif.). Mixtures were incubated at room temperature for 30 min and cell cycle distribution was analyzed using an Epics Elite ESP flow cytometer (Coulter Corporation, Miami, Fla., USA).
The effect of CEU, namely 4-tBCEU, 4-PCEU and 4-sBCEU, on the cell cycle was analyzed. To this end, exponentially growing MDA-MB-231 cells were treated with 30 μM 4-tBCEU, 4-iPCEU or 4-sBCEU for 24 or 48 h followed by an evaluation of cell cycle distribution by flow cytometry using propidium iodide, a fluorescent DNA dye. […] Induction of mitosis blockage in prophase by CEU derivatives was confirmed by mitotic index analysis as described by Drouin (22).

β-tubulin [3] = assay: Separation of soluble and polymerized tubulins, Western blot of β-tubulin; format: cell-based, human; conditions: MDA-MB-231 cells, 30 μM, 24 h and 48 h; for formation of modified β-tubulin (second immunoreactive band of lower Mr): free tubulin fraction
Protocol: FIG. 2. Effects of CEU derivatives on microtubule depolymerization. Exponentially growing MDA-MB-231 cells were incubated in the absence or the presence of 30 μM of CEU derivatives including (A) 4-tBCEU, 4-iPCEU or 4-sBCEU for 24 and 48 h respectively; (B) 2-ECEU, 3-ECEU or 4-ECEU for 24 and 48 h; and (C) 4-tBEU, 4-iPEU, 4-sBEU, 4-tBCPU, CEU or 4-methoxyCEU for 48 h. Free tubulin and microtubule fractions were isolated and analyzed by Western blot. Data are representative of three different experiments.
Separation of soluble and polymerized tubulins from MDA-MB231 cells was carried out as described by Minotti et al. (14) with minor modifications. Briefly, after drug exposure, about 5×10^6 cells in 100-mm petri dishes were washed with PBS at 37° C. and harvested in 3 ml of PBS containing 0.4 μg/ml of taxol using a rubber policeman.
Cells were centrifuged and lysed using 250 μl of microtubule-stabilizing buffer (20 mM Tris-HCl, pH 6.8, 140 mM NaCl, 1 mM MgCl2, 2 mM EDTA, 0.5% Nonidet P-40 and 0.4 μg/ml taxol), and then transferred to 1.5 ml microcentrifuge tubes. Samples were centrifuged at 12,000×g for 10 min at 4° C. and the supernatants containing soluble tubulin were placed in separate microcentrifuge tubes containing 250 μl of 2× Laemmli sample buffer (15). Pellets containing the polymerized tubulin were resuspended in 250 μl of water, followed by two freeze/thawing cycles, and the addition of 250 μl of 2× Laemmli sample buffer. Samples were analyzed by SDS-PAGE and immunoassay was performed as described below.
Samples (1×10^5 cells) were analyzed by 10% SDS-PAGE using the Laemmli system (15). Membranes were then incubated with PBSMT (PBS, pH 7.4, 5% fat-free dry milk and 0.1% Tween-20) for 1 h at room temperature, and then with 1:500 monoclonal anti-β-tubulin (clone TUB 2.1, Sigma) or 1:400 anti (clone no. SDL.3D10, Sigma) for 1 h. […] Membranes were washed with PBSMT and incubated with 1:2500 peroxidase-conjugated anti-mouse immunoglobulin (Amersham Canada, Oakville, Canada) in PBSMT for 30 min. Detection of the immunoblot was carried out with the ECL Western blotting detection reagent kit (Amersham Canada, Oakville, Canada).

[4] = tested on: CHO 10001 cells (wild-type); assay: MTT cytotoxicity on wild-type CHO cells; format: cell-based, Chinese hamster; conditions: Cricetulus griseus, CHO10001, 120 h, read-out: IC50 CHO 10001
Protocol: as §1, with “Wild-type Chinese Hamster Ovary cells (CHO-10001) (7), colchicine- and vinblastine-resistant (CHO-VV 3-2) (8) and taxol-resistant (CHO-TAX 5-6) cells (9) were generously provided by Dr. Fernando Cabral (University of Texas Medical School, Houston, Tex.).” left out
as §2
(§3) The cytotoxicity of 4-tBCEU, 4-iPCEU and 4-sBCEU in two CHO cell lines having differential sensitivity to antmicrotubule agents was evaluated. These cell lines are derived from parental CHO-10001 cells and express mutated tubulins.

[5] = Kinetics of alkylation of 4-(4-nitrobenzyl)pyridine (colorimetric assay); format: physicochemical; conditions: 80° C., pH 4.3, absorbance at 570 nm, linear regression, mean ± SD
Protocol: The rate constant of alkylation (K′) of CEU derivatives and chlorambucil was evaluated by a […] assay as described by Bardos et al (13). Briefly, 1 ml of a 10% (v/v) solution of 4-(4-nitrobenzyl)pyridine in ethanol and 1 ml of 50 mM sodium acetate (pH 4.3) were added to an ethanol solution (95%) containing 400 nmol per ml of either chlorambucil or CEU and heated to 80° C. in a shaking water bath for 60, 90, 120 or 150 min. The reaction was stopped by cooling the mixtures on ice for 5 min. Then, 1.5 ml of 0.1 M KOH: ethanol (1:2, v/v) were added to the reaction mixture. Samples were vortexed for 12 sec and set aside for 2.5 min prior to reading the absorbance at 570 nm. The values were compared with those obtained using a blank sample containing all reagents except the alkylating agent.

CHO TAX 5-6 cells = assay: MTT cytotoxicity on taxol-resistant CHO cells expressing mutated tubulin; format: cell-based, Chinese hamster; conditions: Cricetulus griseus, CHO-TAX 5-6, 120 h, read-out: IC50 CHO TAX 5-6
Protocol: as §1, with “Wild-type Chinese Hamster Ovary cells (CHO-10001) (7), colchicine- and vinblastine-resistant (CHO-VV 3-2) (8) and taxol-resistant (CHO-TAX 5-6) cells (9) were generously provided by Dr. Fernando Cabral (University of Texas Medical School, Houston, Tex.).” left out
as §2, §3

CHO VV 3-2 cells = assay: MTT cytotoxicity on vinblastine- and colchicine-resistant CHO cells expressing mutated tubulin; format: cell-based, Chinese hamster; conditions: Cricetulus griseus, CHO-VV 3-2, 120 h, read-out: IC50 CHO VV 3-2
Protocol: as §1, with “Wild-type Chinese Hamster Ovary cells (CHO-10001) (7), colchicine- and vinblastine-resistant (CHO-VV 3-2) (8) and taxol-resistant (CHO-TAX 5-6) cells (9) were generously provided by Dr. Fernando Cabral (University of Texas Medical School, Houston, Tex.).” left out
as §2, §3

βIII-tubulin = target: T1, βIII-tubulin (Homo sapiens, UniProt Q13509); assay: Alkylation of βIII-tubulin in SK-N-SH cells; format: cell-based
T1 construct: SK—N—SH cells, which express significant amounts of neuronal-specific βIII-tubulin; endogenous in cells; host or cells: SK-N-SH (ATCC HTB-11)
Protocol: FIG. 7. Localization of the site of alkylation by CEU on β-tubulin. Exponentially growing SK—N—SH cells were incubated in the absence or the presence of 30 μM and 100 μM [urea-^14C]-4-tBCEU for 24 h and 48 h, respectively. Total protein extracts were separated electrophoretically on 10% polyacrylamide gels. […] Results are representative of two independent experiments.
as §1
Samples (1×10^5 cells) were analyzed by 10% SDS-PAGE using the Laemmli system (15). […]

β-tubulin [6] = assay: Protein alkylation by [urea-14C]-4-tBCEU in MDA-MB-231 cells (autoradiography, immunoblot, kinetics); format: cell-based, human
Protocol: FIG. 3. Protein alkylation induced by treatment with [urea-^14C]-4-tBCEU. (A) Post-nuclei protein extracts from MDA-MB-231 cells incubated with 30 or 100 μM of [urea-^14C]-4-tBCEU for 12 and 24 h. […] The protein extracts were analyzed by SDS-PAGE. […] Data are representative of four different experiments. The arrow points to β-tubulin.
FIG. 5. Kinetics of β-tubulin alkylation and microtubule disruption induced by [urea-^14C]-4-tBCEU. Exponentially growing MDA-MB231 cells were incubated with 30 μM [urea-^14C]-4-tBCEU for 0, 1, 4, 8, 12, 18, 24 and 48 h. (A) Free tubulin and microtubule fractions were isolated and analyzed by Western blotting; (B) [urea-^14C]-4-tBCEU-labeled proteins were visualized by autoradiography. Data are representative of three different experiments.
Cells (˜5×10^6) were incubated with 30 or 100 μM [^14C]-tBCEU for 12 or 24 h and then washed with PBS and harvested by scraping in lysis buffer (5 mM Hepes pH 7.4, 1 mM MgCl2, 10 mM KCl, 1 mM CaCl2, 1 mM PMSF, 1 mM benzamidine and 1 mM aprotinin). Cell lysates were homogenized using a tissue grinder and the final sucrose concentration of each sample was adjusted to 250 mM. Samples were centrifuged at 600×g for 10 min at 4° C. to isolate the post-nuclear supernatant. The pellets, containing nuclei and intact cells, were discarded and the post-nuclear supernatant was recentrifuged at 90,000 rpm using a Rotor TLA-100.1 in a Beckman TL-100 ultracentrifuge for 30 min to separate the cytosolic fraction (C) from the insoluble fraction (M) containing the membrane components and mitochondria. One volume of 2× Laemmli sample buffer was then added to the supernatant (C) and the pellet (M) was resuspended in 200 μl of Laemmli sample buffer. Samples were boiled for 5 min and kept at −20° C. until analysis.
Samples (1×10^5 cells) were analyzed by 10% SDS-PAGE using the Laemmli system (15). Membranes were then incubated with PBSMT (PBS, pH 7.4, 5% fat-free dry milk and 0.1% Tween-20) for 1 h at room temperature, and then with 1:500 monoclonal anti-β-tubulin (clone TUB 2.1, Sigma) or 1:400 anti (clone no. SDL.3D10, Sigma) for 1 h. […]

[7] = Homo sapiens, MDA-MB-231, concentration inhibiting 50% of cell growth
[8] = concentration inhibiting 50% of cell growth

T1 sequence (Q13509 whole entry): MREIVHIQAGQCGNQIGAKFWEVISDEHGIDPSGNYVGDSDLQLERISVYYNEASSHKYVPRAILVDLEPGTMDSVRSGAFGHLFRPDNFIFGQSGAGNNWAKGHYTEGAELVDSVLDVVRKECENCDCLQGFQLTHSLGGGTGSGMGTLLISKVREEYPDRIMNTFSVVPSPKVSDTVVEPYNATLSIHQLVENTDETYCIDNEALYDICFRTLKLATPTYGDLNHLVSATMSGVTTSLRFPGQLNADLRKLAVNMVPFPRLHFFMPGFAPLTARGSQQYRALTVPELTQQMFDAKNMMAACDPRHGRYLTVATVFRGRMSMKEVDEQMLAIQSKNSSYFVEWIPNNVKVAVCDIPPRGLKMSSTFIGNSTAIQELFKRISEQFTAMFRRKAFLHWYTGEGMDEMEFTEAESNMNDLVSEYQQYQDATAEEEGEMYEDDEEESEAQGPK
T1 sequence (P68363 whole entry partner): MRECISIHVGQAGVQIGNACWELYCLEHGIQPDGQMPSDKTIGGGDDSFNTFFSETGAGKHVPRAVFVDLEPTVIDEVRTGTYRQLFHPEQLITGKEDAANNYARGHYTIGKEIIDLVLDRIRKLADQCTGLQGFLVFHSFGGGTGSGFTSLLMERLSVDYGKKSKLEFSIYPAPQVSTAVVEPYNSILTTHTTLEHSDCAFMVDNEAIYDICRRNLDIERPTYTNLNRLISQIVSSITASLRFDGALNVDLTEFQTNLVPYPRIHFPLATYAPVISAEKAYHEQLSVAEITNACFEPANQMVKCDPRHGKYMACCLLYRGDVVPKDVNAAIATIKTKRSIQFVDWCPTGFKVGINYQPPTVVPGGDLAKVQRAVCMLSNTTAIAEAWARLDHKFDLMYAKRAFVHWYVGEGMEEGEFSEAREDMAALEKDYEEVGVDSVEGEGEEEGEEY

SMILES | cytotoxicity in words (active / inactive CEU) (MDA-MB-231 cells [1]) | IC50 (MDA-MB-231 cells [1]; [7]) [µM] | IC50 (MDA-MB-231 cells [1]; [8]) [µM] | speed of induction of cell cycle arrest in G2+M compared with 4-tBCEU (MDA-MB-231 cells [2]) | accumulation of cells in G2+M (MDA-MB-231 cells [2]) | microtubule depolymerization (β-tubulin [3]) | formation of modified β-tubulin (second immunoreactive band of lower Mr) (β-tubulin [3]) | IC50 [4] [µM] | K′ (constant of alkylation of 4-(4-nitrobenzyl)pyridine) [5] | IC50 (CHO TAX 5-6 cells) [µM] | IC50 (CHO VV 3-2 cells) [µM] | alkylation of βIII-tubulin (βIII-tubulin; 30 and 100 μM, 24 h and 48 h, autoradiography) | migration on SDS-PAGE of βIII-tubulin (βIII-tubulin; Western blot (FIG. 7A)) | incubation time at which modified β-tubulin appears (immunoblot) (β-tubulin [6]; 30 μM (FIG. 5A)) [h] | incubation time at which 14C-labeled modified β-tubulin appears (autoradiography) (β-tubulin [6]; 30 μM (FIG. 5B)) [h] | incubation time to complete microtubule disruption (β-tubulin [6]; 30 μM, Western blot (FIG. 5A)) [h]
CC(C)c1ccc(NC(=O)NCCCl)cc1 [Example 4-iPCEU, 4-iso-propyl[3-(2-chloroethyl)ureido]benzene] | active | 2 | 2.2 ± 0.3 | more rapidly | significant accumulation of cells in the G2+M | complete microtubule depolymerization | second immunoreactive band; also recorded: slighly faster than for 4-tBCEU | 4.4 ± 0.2 | 3.0 ± 0.1^a | 2 ± 0.1 | 7.7 ± 0.4 |  |  |  |  | 
CCC(C)c1ccc(NC(=O)NCCCl)cc1 (stereo not drawn) [Example 4-sBCEU, 4-sec-butyl[3-(2-chloroethyl)ureido]benzene] | active | 2 | 2.3 ± 0.1 | more rapidly | significant accumulation of cells in the G2+M | complete microtubule depolymerization | second immunoreactive band; also recorded: slighly faster than for 4-tBCEU | 5 ± 0.2 | 3.1 ± 0.3^a | 2.1 ± 0.1 | 8.2 ± 0.4 |  |  |  |  | 
CC(C)(C)c1ccc(N[14C](=O)NCCCl)cc1 [[urea-^14C]-4-tBCEU] |  |  |  |  |  |  |  |  |  |  |  | βIII-tubulin is not alkylated | does not alter migration of the β-tubulin on SDS-PAGE | 12 | 1 to 4 | 8 to 12
